Patent publication EP4772510A2, “BENZAZEPINONE COMPOUND AND USE THEREOF” (HANGZHOU BIO-SINCERITY PHARMA-TECHCO., LTD., priority 2023, dated 2025)

What was measured:
U937 cells = assay: Inhibition of TNF-α-induced necroptosis of U937 cells (CCK-8 assay); type: cell-based, human; settings: Homo sapiens, U-937, TNF-α 20 ng/mL + BV6 2 µM + Z-VAD-FMK 20 µM, 18 h
Excerpt: Example 56: Inhibition of TNF-α-Induced Necroptosis of U937 Cells by Compounds
• 1. Experimental reagents: RPMI-1640 culture medium, fetal bovine serum, penicillin-streptomycin, TNF-α (MCE, HY-P7058), BV6 (MCE, HY-16701), Z-VAD-FMK (MCE, HY-16658B), and CCK-8 (Dalian Meilun Biotech Co., Ltd., MA0218). • 2. Experimental instruments: medical low-temperature freezer (Thermo Fisher scientific, 902-ULTS), electrically heated thermostatic water bath (Shanghai Bluepard Instruments Co., Ltd., CD-420), low-speed centrifuge (ANHUI USTC Zonkia Scientific Instruments Co., Ltd, SC-3616), carbon dioxide incubator (Shanghai Bluepard Instruments Co., Ltd., BPN-150CH(UV)), inverted microscope (Olympus, CKX53), multi-functional microplate reader (Thermo Tecan, SPARK), class-II biosafety cabinet (AIRTECH, BSC-1304IIA2), and desktop cell counter (Thermo Fisher Scientific, Countess II). • 3. Cell culturing: U937 cells (human histiocytic lymphoma cells) were cultured in an RPMI-1640 culture solution containing 10% fetal bovine serum and 1% penicillin-streptomycin solution in a 5% CO2 incubator at 37 °C and a saturated humidity. The cell culture flask was vertically placed in the incubator. A T25 culture flask was used as an example, the culture solution in the flask was 6-8 mL, and culture medium changes and cell passaging were performed 3-4 times a week. • 4. […] The culture medium was taken out from the freezer and transferred to the water bath for pre-heating. An appropriate amount of culture medium was then taken for use. • (2) The cell suspension was transferred to a 15 mL sterile centrifuge tube and centrifuged at 850 rpm for 4 min to collect U937 cells. • (3) The supernatant was carefully discarded, and an appropriate amount of culture medium was added. The mixture was gently pipetted using a pipette to homogenize the cells and thus prepare a single-cell suspension, and the cells were counted. • (4) The cells were diluted to 4 × 10^5/mL and seeded into a 96-well plate at 90 µL/well, such that the cell density in the 96-well plate was 3.6 × 10 ^4 cells/well. The cells were incubated in a 5% CO 2 incubator at 37 °C and a saturated humidity for 6 h, followed by the addition of compounds. • 4.2 Dilution and addition of compounds: • (1) TNF-α was dissolved in PBS to obtain a 100 µg/mL stock solution and aliquoted; Z-VAD-FMK was dissolved in DMSO to obtain a 10 mM stock solution and aliquoted; BV6 was dissolved in DMSO to obtain a 10 mM stock solution and aliquoted; GSK2982772 was dissolved in DMSO to obtain a 10 mM stock solution and aliquoted. One aliquot of each stock solution was stored at -20 °C for immediate use, while the remaining aliquots were stored at - 80 °C and used within their shelf life. • (2) RPMI-1640 culture medium containing TNF-α, BV6, and Z-VAD-FMK was prepared (5 µL/per well), such that the final concentrations of TNF-α, BV6, and Z-VAD-FMK were 20 ng/mL, 2 µM, and 20 µM, respectively. • (3) Each target compound was three-fold diluted with a culture medium to 8 concentration gradients, with each concentration set in duplicate (5 µL/well). The final concentrations of each target compound were 1000.00/333.33/111.11/37.04/12.35/4.12/1.37/0.46 nM. • (4) The 96-well plate containing 90 µL of cell suspension was taken out from an incubator, and a positive control group, test compound groups, and a DMSO (5‰) control group were set. 5 µL of RPMI-1640 culture solution containing TNF-α, BV6, and Z-VAD-FMK and 5 µL of culture solution containing the test compound were added to the positive control group and the test compound groups. After compound addition, the mixtures were cultured for 18 h, followed by the CCK-8 assay. • (5) The 96-well plate was taken out, and the CCK-8 reagent was carefully added at 10 µL/well. The mixtures were incubated at 37 °C for 2-4 h, and the absorbance value was measured at a wavelength of 450 nm. • 5. Evaluation of inhibitory activity of compounds on TNF-α-induced necroptosis of U937 [formula] […]

HT-29 cells = assay: Inhibition of TNF-α-induced necroptosis of HT-29 cells (SRB method); type: cell-based, human; settings: Homo sapiens, HT-29, TNF-α 20 ng/mL + BV6 2 µM + Z-VAD-FMK 20 µM, 18 h
Excerpt: Example 57: Inhibition of TNF-α-Induced Necroptosis of HT-29 Cells by Compounds
• 1. Experimental reagents: McCOY's 5A culture medium, fetal bovine serum, penicillin-streptomycin, trypsin, PBS, TNF-α (MCE, HY-P7058), BV6 (MCE, HY-16701), Z-VAD-FMK (MCE, HY-16658B), SRB kit (Shanghai BestBio Biotechnology Co., Ltd., BB-4208-500T). • 2. Experimental instruments: medical low-temperature freezer (Thermo Fisher scientific, 902-ULTS), electrically heated thermostatic water bath (Shanghai Bluepard Instruments Co., Ltd., CD-420), low-speed centrifuge (ANHUI USTC Zonkia Scientific Instruments Co., Ltd, SC-3616), carbon dioxide incubator (Shanghai Bluepard Instruments Co., Ltd., BPN-150CH(UV)), inverted microscope (Olympus, CKX53), multi-functional microplate reader (Thermo Tecan, SPARK), class-II biosafety cabinet (AIRTECH, BSC-1304IIA2), and desktop cell counter (Thermo Fisher Scientific, Countess II). • 3. Cell culturing: HT-29 cells (human colon cancer cells) were cultured in a McCOY's 5A culture solution containing 10% fetal bovine serum and 1% penicillin-streptomycin solution in a 5% CO 2 at 37 °C and a saturated humidity, and culture medium changes and cell passaging were performed 3-4 times a week. • 4. […] The culture medium, trypsin, etc., were taken out from the freezer and transferred to the water bath for pre-heating. An appropriate amount of these substances was then taken for use. • (2) The old culture medium in the flask was aspirated using a sterile pipette and discarded, and the cells were washed 3 times with PBS. 1 mL of trypsin (25 cm^2 cell culture flask) was added into the flask, and the flask was gently shaken to allow the trypsin to cover all the cell surfaces. Digestion was performed in an incubator at 37 °C. After 2 min of digestion, the flask was placed under a microscope for observation. […] The mixture was gently pipetted using a pipette to homogenize the cells and thus prepare a single-cell suspension, and the cells were counted. • (5) The cells were diluted to 3 × 10^5/mL and seeded into a 96-well plate at 100 µL/well, such that there were 3 × 10^4 cells per well in the 96-well plate. The cells were incubated in a 5% CO2 incubator at 37 °C and a saturated humidity for 24 h, followed by the addition of compounds. • 4.2 Dilution and addition of compounds: • (1) TNF-α was dissolved in PBS to obtain a 100 µg/mL stock solution and aliquoted; Z-VAD-FMK was dissolved in DMSO to obtain a 10 mM stock solution and aliquoted; BV6 was dissolved in DMSO to obtain a 10 mM stock solution and aliquoted; GSK2982772 was dissolved in DMSO to obtain a 10 mM stock solution and aliquoted. One aliquot of each stock solution was stored at -20 °C for immediate use, while the remaining aliquots were stored at - 80 °C and used within their shelf life. • (2) McCOY's 5A culture solution containing TNF-α, BV6, and Z-VAD-FMK was prepared. For the positive control group and the test compound groups, the McCOY's 5A culture solution was added at 90 µL/well, and 10 µL of the culture medium containing the test compound was also added, thus making the final concentrations of TNF-α, BV6, and Z-VAD-FMK be 20 ng/mL, 2 µM, and 20 µM, respectively. For the DMSO (5‰) control group, 90 µL of the McCOY's 5A complete culture solution was added, and then 10 µL of DMSO was added, thus making the final concentration 5‰. • (3) Each target compound was three-fold diluted with a culture medium to 8 concentration gradients, with each concentration set in duplicate (10 µL/well). The final concentrations of each target compound were 1000.00/333.33/111.11/37.04/12.35/4.12/1.37/0.46 nM. • (4) The 96-well plate cultured for 24 h was taken out from the incubator, and the culture medium in the 96-well plate was carefully aspirated and discarded. A positive control group, test compound groups, and a DMSO (5‰) control group were set, and 10 µL of the corresponding compound was added to each group. […]

Cn1cc(C#Cc2cc3c4c(c2)CCN4C(=O)C(NC(=O)c2ncn(Cc4ccccc4F)n2)CC3)cn1 (stereo not shown) [III-7, 1-(2-fluorobenzyl)-N-(9-((1-methyl-1H-pyrazol-4-yl)ethynyl)-4-oxo-1,2,3,4,6,7-hexahydroazepino[3,2,1-hi]indol-3-yl)-1H-1,2,4-triazole-3-carboxamide]
EC50 (U937 cells): < 5 nM | EC50 (HT-29 cells): 10 to 100 nM

Cn1cc(C#Cc2cc3c4c(c2)CCN4C(=O)C(NC(=O)c2ncn(Cc4ccc(F)cc4)n2)CC3)cn1 (stereo not shown) [III-8, 1-(4-fluorobenzyl)-N-(9-((1-methyl-1H-pyrazol-4-yl)ethynyl)-4-oxo-1,2,3,4,6,7-hexahydroazepino[3,2,1-hi]indol-3-yl)-1H-1,2,4-triazole-3-carboxamide]
EC50 (U937 cells): 5 to 10 nM | EC50 (HT-29 cells): 10 to 100 nM

Cn1cc(C#Cc2cc3c4c(c2)CCN4C(=O)C(NC(=O)c2ncn(Cc4ccc(F)cc4F)n2)CC3)cn1 (stereo not shown) [III-9, 1-(2,4-difluorobenzyl)-N-(9-((1-methyl-1H-pyrazol-4-yl)ethynyl)-4-oxo-1,2,3,4,6,7-hexahydroazepino[3,2,1-hi]indol-3-yl)-1H-1,2,4-triazole-3-carboxamide]
EC50 (U937 cells): < 5 nM | EC50 (HT-29 cells): < 5 nM

Cn1cc(C#Cc2cc3c4c(c2)CCN4C(=O)C(NC(=O)c2ncn(Cc4cc(F)cc(F)c4)n2)CC3)cn1 (stereo not shown) [III-11, 1-(3,5-difluorobenzyl)-N-(9-((1-methyl-1H-pyrazol-4-yl)ethynyl)-4-oxo-1,2,3,4,6,7-hexahydroazepino[3,2,1-hi]indol-3-yl)-1H-1,2,4-triazole-3-carboxamide]
EC50 (U937 cells): < 5 nM | EC50 (HT-29 cells): < 5 nM

Cc1ccccc1Cn1cnc(C(=O)NC2CCc3cc(C#Cc4cnn(C)c4)cc4c3N(CC4)C2=O)n1 (stereo not shown) [III-13, N-(9-((1-methyl-1H-pyrazol-4-yl)ethynyl)-4-oxo-1,2,3,4,6,7-hexahydroazepino[3,2,1-hi]indol-3-yl)-1-(2-methylbenzyl)-1H-1,2,4-triazole-3-carboxamide]
EC50 (U937 cells): < 5 nM | EC50 (HT-29 cells): 5 to 10 nM

Cc1ccc(Cn2cnc(C(=O)NC3CCc4cc(C#Cc5cnn(C)c5)cc5c4N(CC5)C3=O)n2)cc1 (stereo not shown) [III-14, N-(9-((1-methyl-1H-pyrazol-4-yl)ethynyl)-4-oxo-1,2,3,4,6,7-hexahydroazepino[3,2,1-hi]indol-3-yl)-1-(4-methylbenzyl)-1H-1,2,4-triazole-3-carboxamide]
EC50 (U937 cells): < 5 nM | EC50 (HT-29 cells): 5 to 10 nM

O=C(NC1CCc2cc(C#CC3CCNCC3)cc3c2N(CC3)C1=O)c1ncn(Cc2c(F)cccc2F)n1 (stereo not shown) [III-15, 1-(2,6-difluorobenzyl)-N-(4-oxo-9-(piperidin-4-ylethynyl)-1,2,3,4,6,7-hexahydroazepino[3,2,1-hi]indol-3-yl)-1H-1,2,4-triazole-3-carboxamide]
EC50 (U937 cells): < 5 nM | EC50 (HT-29 cells): < 5 nM

CC(C)(C)OC(=O)N1CCC(C#Cc2cc3c4c(c2)CCN4C(=O)C(NC(=O)c2ncn(Cc4c(F)cccc4F)n2)CC3)CC1 (stereo not shown) [III-16, tert-butyl 4-((3-(1-(2,6-difluorobenzyl)-1H-1,2,4-triazole-3-carboxamido)-4-oxo-1,2,3,4,6,7-hexahydroazepino[3,2,1-hi]indol-9-yl)ethynyl)piperidine-1-carboxylate]
EC50 (U937 cells): < 5 nM | EC50 (HT-29 cells): 10 to 100 nM

O=C(NC1CCc2cc(C#Cc3cnn(C(F)F)c3)cc3c2N(CC3)C1=O)c1ncn(Cc2cc(F)cc(F)c2)n1 (stereo not shown) [III-18, 1-(3,5-difluorobenzyl)-N-(9-((1-(difluoromethyl)-1H-pyrazol-4-yl)ethynyl)-4-oxo-1,2,3,4,6,7-hexahydroazepino[3,2,1-hi]indol-3-yl)-1H-1,2,4-triazole-3-carboxamide]
EC50 (U937 cells): 10 to 100 nM | EC50 (HT-29 cells): 5 to 10 nM

O=C(NC1CCc2cc(C#Cc3cnn(C(F)F)c3)cc3c2N(CC3)C1=O)c1ncn(Cc2ccc(F)cc2F)n1 (stereo not shown) [III-20, 1-(2,4-difluorobenzyl)-N-(9-((1-(difluoromethyl)-1H-pyrazol-4-yl)ethynyl)-4-oxo-1,2,3,4,6,7-hexahydroazepino[3,2,1-hi]indol-3-yl)-1H-1,2,4-triazole-3-carboxamide]
EC50 (U937 cells): 5 to 10 nM | EC50 (HT-29 cells): 5 to 10 nM

Cc1ccccc1Cn1cnc(C(=O)NC2CCc3cc(C#Cc4cnn(C(F)F)c4)cc4c3N(CC4)C2=O)n1 (stereo not shown) [III-22, N-(9-((1-(difluoromethyl)-1H-pyrazol-4-yl)ethynyl)-4-oxo-1,2,3,4,6,7-hexahydroazepino[3,2,1-hi]indol-3-yl)-1-(2-methylbenzyl)-1H-1,2,4-triazole-3-carboxamide]
EC50 (U937 cells): 10 to 100 nM | EC50 (HT-29 cells): 5 to 10 nM
